Experiments:
in vitro = conditions: for fold increase in half-life vs Cit-Val: 2 μM; for half-life at 2 μM: plasma
Protocol: Pooled frozen plasma was thawed in a water bath at 37° C. Plasma was centrifuged at 4000 rpm for 5 min and the clots were removed if any. The pH will be adjusted to 7.4±0.1 if required. 1 mM stock solution was prepared with DMSO. Propantheline (positive control) was prepared by making a 100 μM working solution by diluting 5 μL of the stock solution (10 mM) with 495 μL ultra pure water. 100 μM working solutions of test compounds were made up by diluting 10 μL of the stock solution (1 mM) with 90 μL DMSO. 98 μL of blank plasma was spiked with 2 μL of dosing solution (100 μM) to achieve 2 μM of the final concentration in duplicate and samples were incubated at 37° C. in a water bath. […] An aliquot of supernatant (150 μL) was transferred from each well before submitting for LC-MS/MS analysis.
The % remaining test compound after incubation in plasma was calculated using following equation: Remaining=100×(PAR at appointed incubation time/PAR at T0 time)
where PAR is the peak area ratio of analyte versus internal standard (IS).
The half-life (T½) was calculated from a log linear plot of concentration versus time.

Cathepsin B = Cathepsin B (Homo sapiens, UniProt P07858); assay: Cathepsin B (CatB) cleavage assay; type: biochemical; conditions: for % Parent remaining after incubation with CatB, T = 1 h / % Parent remaining after incubation with CatB, T = 4 h / % Parent remaining after incubation with CatB, T = 24 h: norfloxacin linker compounds; for % Parent remaining after incubation with CatB, 0 h / % Parent remaining after incubation with CatB, 1 h / % Parent remaining after incubation with CatB, 2 h / % Parent remaining after incubation with CatB, 4 h / % Parent remaining after incubation with CatB, 6 h / % Parent remaining after incubation with CatB, 24 h / half-life at 40 μM: BTCs; for half-life at 40 μM: read-out: CatB t1/2 (converted)
Protocol: 15 μL of test compound solution (2 mM in DMSO) was added to the incubation plate in duplicate. 30 μL of Cathepsin B stock solution (16 μM) was pre-activated with 1500 μL activation buffer for 10 min at room temperature. The Cathepsin B solution was diluted in 13.17 mL water, then 735 μL activatived enzyme mixture was added to the incubation plate. The mixture was incubated at 37° C. in a waterbath. […] The samples were mixed and centrifuged at 4000 rpm for 20 min. 50 μL of supernatant was taken into a new plate containing 150 μL ultra-pure water and the samples mixed thoroughly before submitting to LC-MS/MS analysis.

[1] = pH 7.4, Mouse plasma t1/2 (EDTA), BTCs, EDTA anticoagulant

| Compound | fold increase in half-life vs Cit-Val (in vitro; mouse, pH 7.4) [fold] | half-life at 2 μM (in vitro; mouse, pH 7.4) [h] | % Parent remaining after incubation with CatB, T = 1 h (Cathepsin B) [%] | % Parent remaining after incubation with CatB, T = 4 h (Cathepsin B) [%] | % Parent remaining after incubation with CatB, T = 24 h (Cathepsin B) [%] | half-life at 2 μM (in vitro; pH 7.4, Mouse plasma t1/2 expt 2 (EDTA), BTCs, EDTA anticoagulant, experiment 2) [h] | % Parent remaining after incubation with CatB, 0 h (Cathepsin B) [%] | % Parent remaining after incubation with CatB, 1 h (Cathepsin B) [%] | % Parent remaining after incubation with CatB, 2 h (Cathepsin B) [%] | % Parent remaining after incubation with CatB, 4 h (Cathepsin B) [%] | % Parent remaining after incubation with CatB, 6 h (Cathepsin B) [%] | % Parent remaining after incubation with CatB, 24 h (Cathepsin B) [%] | half-life at 40 μM (Cathepsin B) [h] | half-life at 2 μM (in vitro; [1]) [h] |
| --- | --- | --- | --- | --- | --- | --- | --- | --- | --- | --- | --- | --- | --- | --- |
| CCn1cc(C(=O)O)c(=O)c2cc(F)c(N3CCN(C(=O)OCc4ccc(NC(=O)[C@H](CNC(=N)N)NC(=O)[C@@H](NC(=O)CCCC(=O)N(C)C)C(C)C)cc4)CC3)cc21 [BCY10300] | 3.4 | 1.4 | 72 | 10 | 0 | – | – | – | – | – | – | – | – | – |
| CCn1cc(C(=O)O)c(=O)c2cc(F)c(N3CCN(C(=O)OCc4ccc(NC(=O)[C@H](CCNC(=N)N)NC(=O)[C@@H](NC(=O)[C@H](CCC(=O)O)NC(=O)CCCC(=O)N(C)C)C(C)C)cc4)CC3)cc21 [BCY9695] | 34.1 | 14.3 | 0 | 0 | 0 | – | – | – | – | – | – | – | – | – |
| CCn1cc(C(=O)O)c(=O)c2cc(F)c(N3CCN(C(=O)OCc4ccc(NC(=O)[C@H](CCCNC(N)=O)NC(=O)[C@@H](NC(=O)[C@H](CCC(=O)O)NC(=O)CCCC(=O)N(C)C)C(C)C)cc4)CC3)cc21 [BCY9696] | 25.1 | 10.8 | 0 | 0 | 0 | – | – | – | – | – | – | – | – | – |
| CCn1cc(C(=O)O)c(=O)c2cc(F)c(N3CCN(C(=O)OCc4ccc(NC(=O)[C@H](CN)NC(=O)[C@@H](NC(=O)[C@H](CCC(=O)O)NC(=O)CCCC(=O)N(C)C)C(C)C)cc4)CC3)cc21 [BCY10297] | 19.3 | 15.5 | 75 | 15 | 0 | – | – | – | – | – | – | – | – | – |
| CC[C@H](C)[C@@H]([C@@H](CC(=O)N1CCC[C@H]1[C@H](OC)[C@@H](C)C(=O)N[C@H](C)[C@@H](O)c1ccccc1)OC)N(C)C(=O)[C@@H](NC(=O)[C@H](C(C)C)N(C)C(=O)OCc1ccc(NC(=O)[C@H](CCN)NC(=O)[C@@H](NC(=O)Cn2cc(CCC(=O)NCCC(=O)N(C)CC(=O)N(C)CC(=O)N(C)CC(=O)N(C)CC(=O)N(C)CC(=O)N(C)CC(=O)N(C)CC(=O)N(C)CC(=O)N(C)CC(=O)N(C)CC(=O)N[C@@H](C)C(=O)N[C@H]3CN(C)Cc4cc5cc(c4)CN(C)C[C@@H](C(N)=O)NC(=O)[C@H](C(C)(C)C)NC(=O)[C@H](CC(=O)O)NC(=O)[C@H](Cc4ccc(O)cc4)NC(=O)[C@H](Cc4ccccc4)NC(=O)[C@H](CC(=O)O)NC(=O)[C@H](CCC(=O)O)NC(=O)[C@H](CSC5)NC(=O)[C@@H](C)NC(=O)[C@H](Cc4cccc5ccccc45)NC(=O)[C@H](CCC(=O)O)NC(=O)[C@H](CC(N)=O)NC(=O)[C@@H](C)NC3=O)nn2)C(C)C)cc1)C(C)C [BCY10989, MMAE-PAB-(Dab-Val)-BCY3900] | – | – | – | – | – | 30.8 | 100 | 89.4 | 60.7 | 40.4 | 23.2 | 12.8 | 2.8 | – |
| CC[C@H](C)[C@@H]([C@@H](CC(=O)N1CCC[C@H]1[C@H](OC)[C@@H](C)C(=O)N[C@H](C)[C@@H](O)c1ccccc1)OC)N(C)C(=O)[C@@H](NC(=O)[C@H](C(C)C)N(C)C(=O)OCc1ccc(NC(=O)[C@H](CCN)NC(=O)C2(NC(=O)[C@H](CCC(=O)O)NC(=O)Cn3cc(CCC(=O)NCCC(=O)N(C)CC(=O)N(C)CC(=O)N(C)CC(=O)N(C)CC(=O)N(C)CC(=O)N(C)CC(=O)N(C)CC(=O)N(C)CC(=O)N(C)CC(=O)N(C)CC(=O)N[C@@H](C)C(=O)N[C@H]4CN(C)Cc5cc6cc(c5)CN(C)C[C@@H](C(N)=O)NC(=O)[C@H](C(C)(C)C)NC(=O)[C@H](CC(=O)O)NC(=O)[C@H](Cc5ccc(O)cc5)NC(=O)[C@H](Cc5ccccc5)NC(=O)[C@H](CC(=O)O)NC(=O)[C@H](CCC(=O)O)NC(=O)[C@H](CSC6)NC(=O)[C@@H](C)NC(=O)[C@H](Cc5cccc6ccccc56)NC(=O)[C@H](CCC(=O)O)NC(=O)[C@H](CC(N)=O)NC(=O)[C@@H](C)NC4=O)nn3)CCC2)cc1)C(C)C [BCY10988, MMAE-PAB-(Dab-cBu-Glu)-BCY3900] | – | – | – | – | – | – | 100 | 109.88 | 119 | 110 | 105 | 111 | > 57.8 | > 57.8 |
| CCn1cc(C(=O)O)c(=O)c2cc(F)c(N3CCN(C(=O)OCc4ccc(NC(=O)[C@H](CCN)NC(=O)[C@@H](NC(=O)[C@H](CCC(=O)O)NC(=O)CCCC(=O)N(C)C)C(C)C)cc4)CC3)cc21 [BCY10122] | 107.5 | 39 | 0 | 0 | 0 | – | – | – | – | – | – | – | – | – |
| CC[C@H](C)[C@@H]([C@@H](CC(=O)N1CCC[C@H]1[C@H](OC)[C@@H](C)C(=O)N[C@H](C)[C@@H](O)c1ccccc1)OC)N(C)C(=O)[C@@H](NC(=O)[C@H](C(C)C)N(C)C(=O)OCc1ccc(NC(=O)[C@H](CCN)NC(=O)[C@@H](NC(=O)[C@H](CCC(=O)O)NC(=O)Cn2cc(CCC(=O)NCCC(=O)N(C)CC(=O)N(C)CC(=O)N(C)CC(=O)N(C)CC(=O)N(C)CC(=O)N(C)CC(=O)N(C)CC(=O)N(C)CC(=O)N(C)CC(=O)N(C)CC(=O)N[C@@H](C)C(=O)N[C@H]3CN(C)Cc4cc5cc(c4)CN(C)C[C@@H](C(N)=O)NC(=O)[C@H](C(C)(C)C)NC(=O)[C@H](CC(=O)O)NC(=O)[C@H](Cc4ccc(O)cc4)NC(=O)[C@H](Cc4ccccc4)NC(=O)[C@H](CC(=O)O)NC(=O)[C@H](CCC(=O)O)NC(=O)[C@H](CSC5)NC(=O)[C@@H](C)NC(=O)[C@H](Cc4cccc5ccccc45)NC(=O)[C@H](CCC(=O)O)NC(=O)[C@H](CC(N)=O)NC(=O)[C@@H](C)NC3=O)nn2)C(c2ccccc2)c2ccccc2)cc1)C(C)C [BCY10987, MMAE-PAB-(Dab-Dpa-Glu)-BCY3900] | – | – | – | – | – | – | 100 | 104.27 | 90.6 | 90.2 | 94 | 91.48 | > 57.8 | > 57.8 |
| CCn1cc(C(=O)O)c(=O)c2cc(F)c(N3CCN(C(=O)OCc4ccc(NC(=O)[C@H](CCNC(=N)NC)NC(=O)[C@@H](NC(=O)CCCC(=O)N(C)C)C(C)C)cc4)CC3)cc21 [BCY9477] | 6.3 | 2.5 | 0 | 0 | 0 | – | – | – | – | – | – | – | – | – |
| CCn1cc(C(=O)O)c(=O)c2cc(F)c(N3CCN(C(=O)OCc4ccc(NC(=O)[C@H](CCNC(=N)N)NC(=O)[C@@H](NC(=O)CCCC(=O)N(C)C)C(C)C)cc4)CC3)cc21 [BCY9423] | 6.0 | 2.4 | 0.6 | 0 | 0 | – | – | – | – | – | – | – | – | – |

Reference: patent US12540161B2, “Linkers” (BicycleTx Limited, priority 2020, dated 2026)
